Experimental data taken from ChEMBL document CHEMBL5608241, “Discovery of Novel Non-nucleoside DOT1LR231Q Inhibitors with Improved Pharmacokinetic Properties and Anti-lung Cancer Efficacy” (J Med Chem, 2024).
The source made the active and inactive calls. No cut-off for these calls is given here.

Legend:
NCI-H460 [1] = assay: Inhibition of colony formation in human NCI-H460 cells exogenously expressing wildtype DOT1L (unknown origin) (1 to 416 residues) at 2.5 to 5 uM incubated for 7 to 14 days by crystal violet staining based light microscopic analysis; format: functional, cell-based; conditions: dose 2.5-5 µM, time 7-14 day
NCI-H460 [2] = assay: Effect on H3K4me1 expression in human NCI-H460 cells exogenously expressing wildtype DOT1L (unknown origin) (1 to 416 residues) at 5 uM by Western blot analysis; format: functional, cell-based
[3] = Toxicity in male BALB/c-nu mouse model xenografted with human NCI-H460 cells harboring DOT1L R231Q mutant assessed as effect on body weight at 20 mg/kg, ip administered five times a week for 3 weeks; format: organism-based; conditions: in vivo, 504 h
[4] = AUC (0 to t) in male Sprague-Dawley rat at 20 mg/kg, ip measured after 24 hrs by LC-MS/MS analysis; format: ADME, organism-based; conditions: in vivo
NCI-H460 [5] = assay: Inhibition of colony formation in human NCI-H460 cells exogenously expressing wildtype DOT1L (unknown origin) (1 to 416 residues) at 5 uM incubated for 7 to 14 days by crystal violet staining based light microscopic analysis relative to control; format: functional; conditions: time 7-14 day
[6] = Tmax in male Sprague-Dawley rat at 20 mg/kg, ip measured after 24 hrs by LC-MS/MS analysis; format: ADME, organism-based; conditions: in vivo
NCI-H460 [7] = assay: Antiinvasive activity against human NCI-H460 cells exogenously expressing DOT1L R231Q mutant (unknown origin) (1 to 416 residues) assessed as decrease in number of invading cells at 5 uM incubated for 72 hrs by crystal violet staining based transwell invasion assay relative to control; format: functional; set-up: scale not given: the % may be the effect or the level left
NCI-H460 [8] = assay: Antiinvasive activity against human NCI-H460 cells exogenously expressing wildtype DOT1L (unknown origin) (1 to 416 residues) assessed as decrease in number of invading cells at 5 uM incubated for 72 hrs by crystal violet staining based transwell invasion assay relative to control; format: functional; set-up: scale not given: the % may be the effect or the level left
NCI-H460 [9] = assay: Effect on H3K4me1 expression in human NCI-H460 cells exogenously expressing DOT1L R231Q mutant (unknown origin) (1 to 416 residues) at 5 uM by Western blot analysis; format: functional, cell-based
[10] = Half-life in male Sprague-Dawley rat at 20 mg/kg, ip measured after 24 hrs by LC-MS/MS analysis; format: ADME, organism-based; conditions: in vivo
[11] = Cmax in male Sprague-Dawley rat at 20 mg/kg, iv measured after 24 hrs by LC-MS/MS analysis; format: ADME, organism-based; conditions: in vivo
NCI-H460 [12] = assay: Antimigratory activity in human NCI-H460 cells exogenously expressing wildtype DOT1L (unknown origin) (1 to 416 residues) assessed as decrease in number of migrating cells at 5 uM measured after 72 hrs by wound healing assay relative to control; format: functional; set-up: scale not given: the % may be the effect or the level left
[13] = Toxicity in male BALB/c-nu mouse model xenografted with human NCI-H460 cells harboring DOT1L R231Q mutant assessed as effect on physical activity at 20 mg/kg, ip administered five times a week for 3 weeks; format: organism-based; conditions: in vivo, 504 h
[14] = Volume of distribution at steady state in male Sprague-Dawley rat at 20 mg/kg, iv measured after 24 hrs by LC-MS/MS analysis; format: ADME, organism-based; conditions: in vivo, read-out: Vdss
NCI-H460 [15] = assay: Antiinvasive activity against DOT1L knockdown human NCI-H460 cells assessed as decrease in number of invading cells at 2.5 to 5 uM incubated for 72 hrs by crystal violet staining based transwell invasion assay; format: functional, cell-based; conditions: dose 2.5-5 µM
NCI-H460 [16] = assay: Effect on H3K9me2 expression in human NCI-H460 cells exogenously expressing wildtype DOT1L (unknown origin) (1 to 416 residues) at 5 uM by Western blot analysis; format: functional, cell-based
NCI-H460 [17] = assay: Inhibition of sphere formation in human NCI-H460 cells exogenously expressing DOT1L R231Q mutant (unknown origin) (1 to 416 residues) assessed as reduction in self-renewal at 2.5 to 5 uM incubated for 7 to 14 days by inverted microscopic analysis; format: functional, cell-based; conditions: dose 2.5-5 µM, time 7-14 day
NCI-H460 [18] = assay: Effect on H3K27me3 expression in human NCI-H460 cells exogenously expressing wildtype DOT1L (unknown origin) (1 to 416 residues) at 5 uM by Western blot analysis; format: functional, cell-based
NCI-H460 [19] = assay: Inhibition of DOT1L R231Q mutant (unknown origin) (1 to 416 residues) exogenously expressed in human NCI-H460 cells assessed as reduction in H3K79me2 level at 5 uM by Western blot analysis relative to control; format: cell-based
NCI-H460 [20] = assay: Antiproliferative activity against human NCI-H460 cells harboring DOT1L R231Q mutant (unknown origin) (1 to 416 residues) assessed as inhibition of cell proliferation incubated for 72 hrs by CCK-8 assay; format: functional, cell-based; conditions: NCI-H460, 72 h
[21] = AUC (0 to infinity) in male Sprague-Dawley rat at 20 mg/kg, ip measured after 24 hrs by LC-MS/MS analysis; format: ADME, organism-based; conditions: in vivo
[22] = Half-life in male Sprague-Dawley rat at 20 mg/kg, iv measured after 24 hrs by LC-MS/MS analysis; format: ADME, organism-based; conditions: in vivo
NCI-H460 [23] = assay: Antiproliferative activity against human NCI-H460 cells harboring wildtype DOT1L (unknown origin) (1 to 416 residues) assessed as inhibition of cell proliferation incubated for 72 hrs by CCK-8 assay; format: functional, cell-based; conditions: NCI-H460, 72 h
NCI-H460 [24] = assay: Induction of DOT1L R231Q mutant (unknown origin) (1 to 416 residues) stabilization exogenously expressed in human NCI-H460 cells assessed as protection against protease E-mediated degradation preincubated for 7 days followed by protease digestion for 10 mins by DARTS assay; format: cell-based; conditions: dose 1.25-5 µM, time 10090.0 min
NCI-H460 [25] = assay: Effect on H3K79me2 expression in human NCI-H460 cells exogenously expressing wildtype DOT1L (unknown origin) (1 to 416 residues) at 5 uM by Western blot analysis; format: functional, cell-based
NCI-H460 [26] = assay: Inhibition of ERK phosphorylation in human NCI-H460 cells exogenously expressing DOT1L R231Q mutant (unknown origin) (1 to 416 residues) at 5 uM by Western blot analysis; format: cell-based
NCI-H460 [27] = assay: Potency index, ratio of SGC0946 IC50 to test compound IC50 for antiproliferative activity against human NCI-H460 cells harboring DOT1L R231Q mutant (unknown origin) (1 to 416 residues) assessed as inhibition of cell proliferation incubated for 72 hrs by CCK-8 assay; format: functional
NCI-H460 [28] = assay: Inhibition of sphere formation in human NCI-H460 cells exogenously expressing wildtype DOT1L (unknown origin) (1 to 416 residues) assessed as reduction in self-renewal at 5 uM incubated for 7 to 14 days by inverted microscopic analysis relative to control; format: functional; conditions: time 7-14 day
NCI-H460 [29] = assay: Inhibition of colony formation in DOT1L knockdown human NCI-H460 cells at 2.5 to 5 uM incubated for 7 to 14 days by crystal violet staining based light microscopic analysis; format: functional, cell-based; conditions: dose 2.5-5 µM, time 7-14 day
[30] = target: Dual specificity mitogen-activated protein kinase kinase; MEK1/2 (Homo sapiens) (UniProt P36507+Q02750); assay: Inhibition of MEK phosphorylation in human NCI-H460 cells exogenously expressing DOT1L R231Q mutant (unknown origin) (1 to 416 residues) at 5 uM by Western blot analysis; format: cell-based
Chain of Dual specificity mitogen-activated protein kinase kinase; MEK1/2 (Homo sapiens) (P36507 whole entry, looked up, the tested form may be a part): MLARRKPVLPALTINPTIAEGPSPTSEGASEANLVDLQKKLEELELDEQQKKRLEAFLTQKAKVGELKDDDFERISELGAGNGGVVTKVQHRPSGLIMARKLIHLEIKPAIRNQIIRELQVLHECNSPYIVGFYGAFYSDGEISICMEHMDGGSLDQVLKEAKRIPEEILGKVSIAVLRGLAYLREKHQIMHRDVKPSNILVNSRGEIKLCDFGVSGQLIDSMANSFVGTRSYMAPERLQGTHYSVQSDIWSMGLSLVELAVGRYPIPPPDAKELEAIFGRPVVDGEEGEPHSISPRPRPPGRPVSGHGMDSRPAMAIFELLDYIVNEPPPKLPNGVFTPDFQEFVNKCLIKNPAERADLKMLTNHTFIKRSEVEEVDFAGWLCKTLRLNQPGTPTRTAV
Chain of Dual specificity mitogen-activated protein kinase kinase; MEK1/2 (Homo sapiens) (Q02750 whole entry, looked up, the tested form may be a part): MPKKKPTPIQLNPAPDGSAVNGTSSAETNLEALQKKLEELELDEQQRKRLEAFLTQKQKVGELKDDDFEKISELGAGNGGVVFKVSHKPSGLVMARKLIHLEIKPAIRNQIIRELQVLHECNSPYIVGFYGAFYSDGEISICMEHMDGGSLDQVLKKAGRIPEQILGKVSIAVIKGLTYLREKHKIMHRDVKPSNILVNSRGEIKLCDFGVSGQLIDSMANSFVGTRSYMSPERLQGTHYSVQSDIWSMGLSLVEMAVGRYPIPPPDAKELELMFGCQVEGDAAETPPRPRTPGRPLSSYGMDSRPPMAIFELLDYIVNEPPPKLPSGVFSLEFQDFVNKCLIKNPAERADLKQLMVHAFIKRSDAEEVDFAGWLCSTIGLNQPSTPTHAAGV

AUC(0-t) at 24 h [4]: 5280 ng·h/mL
Tmax [6]: 0.25 h
half-life [10]: 6.06 h
Cmax [11]: 3000 ng/mL
Vd [14]: 14.4 L/kg
IC50 (NCI-H460 [20]): 2.85 µM
AUC(0-inf) [21]: 5710 ng·h/mL
half-life [22]: 3.9 h
IC50 (NCI-H460 [23]): 20 µM
inhibition [30]: Active
SMILES: CC(C)(C)c1ccc(NC(=O)NCCCN(CCCN2CCOCC2)CC2(O)CCN(c3nc(Cl)nc4sccc34)C2)cc1 (stereo not given)
inhibition (NCI-H460 [1]): Active
Activity (NCI-H460 [2]): inactive
Activity [3]: Non-Toxic
inhibition at 5 µM (NCI-H460 [5]): 42%
Activity (NCI-H460 [7]): 77.7%
Activity (NCI-H460 [8]): 61.5%
Activity (NCI-H460 [9]): inactive
Activity (NCI-H460 [12]): 38.3%
Activity [13]: Non-Toxic
Activity (NCI-H460 [15]): inactive
Activity (NCI-H460 [16]): inactive
inhibition (NCI-H460 [17]): Active
Activity (NCI-H460 [18]): inactive
inhibition (NCI-H460 [19]): > 50%
Activity (NCI-H460 [24]): Dose-Dependent Effect
Activity (NCI-H460 [25]): inactive
inhibition (NCI-H460 [26]): Active
Ratio IC50 (NCI-H460 [27]): 1.3
inhibition at 5 µM (NCI-H460 [28]): 68.9%
inhibition (NCI-H460 [29]): inactive
